Experiment: xn = mol fraction of the nth substance listed

CCCC[n+]1ccn(C)c1.[Cl-] + CC#N
298.15 K, 101 kPa, x2 = 0.8012
Conditions	electrical conductivity [S/m]	viscosity [mPa·s]
–	1.53	3.52

CCCC[n+]1ccn(C)c1.O=S(=O)([O-])C(F)(F)F + OCCO
100 kPa
Conditions	viscosity [mPa·s]
298.15 K, x1 = 0.0926	15.47
298.15 K, x1 = 0.6922	33.7
303.15 K, x1 = 0.0926	12.53
303.15 K, x1 = 0.4999	21.87
303.15 K, x1 = 0.6922	27.7
308.15 K, x1 = 0.2985	13.86
308.15 K, x1 = 0.4999	18.33
308.15 K, x1 = 0.6922	23.66
308.15 K, x1 = 0.7966	29
313.15 K, x1 = 0.2985	11.67
313.15 K, x1 = 0.4999	15.58
313.15 K, x1 = 0.6922	20.18
318.15 K, x1 = 0.0926	7.45
318.15 K, x1 = 0.4999	13.4
323.15 K, x1 = 0.1936	6.92
323.15 K, x1 = 0.3912	9.9
323.15 K, x1 = 0.7966	18.19

CCCC[n+]1ccn(C)c1.O=S(=O)([O-])C(F)(F)F + CN(C)c1ccccc1
Conditions	viscosity [mPa·s]
308.15 K, 100 kPa, x2 = 0	52.2

CC(C)O + CCCCCC[n+]1ccn(C)c1.O=S(=O)([N-]S(=O)(=O)C(F)(F)F)C(F)(F)F
100 kPa, x1 = 1
Conditions	viscosity [mPa·s]
293.15 K	2.42
298.15 K	2.05
303.15 K	1.73
308.15 K	1.49
313.15 K	1.34

CC(C)O + CCCCCC[n+]1ccn(C)c1.O=S(=O)([O-])C(F)(F)F
100 kPa, x1 = 1
Conditions	viscosity [mPa·s]
298.15 K	2.05
308.15 K	1.49

CC(C)O + CS(=O)(=O)[O-].C[N+](C)(CCO)CCO
101 kPa, x2 = 0
Conditions	viscosity [mPa·s]
298.15 K	2.08
303.15 K	1.79
308.15 K	1.546
313.15 K	1.343
318.15 K	1.189
323.15 K	1.056

CCCC[N+]1(C)CCCC1.O=S(=O)([N-]S(=O)(=O)C(F)(F)F)C(F)(F)F + O=C1CCCO1
100 kPa
Conditions	electrical conductivity [S/m]	viscosity [mPa·s]
303.15 K, x2 = 0.2019	0.461	36.7
308.15 K, x2 = 0.1075	0.459	39.2
308.15 K, x2 = 0.3004	0.638	23.93
308.15 K, x2 = 0.9498	1.31	–
313.15 K, x2 = 0.7009	1.67	5.75
313.15 K, x2 = 0.9498	1.41	–
318.15 K, x2 = 0.2019	0.705	22.28
318.15 K, x2 = 0.8509	2.23	–
318.15 K, x2 = 0.9498	1.5	–
323.15 K, x2 = 0.3004	0.905	15.24
323.15 K, x2 = 0.5999	1.57	6.44
323.15 K, x2 = 0.7009	1.98	4.7
323.15 K, x2 = 0.9498	1.6	–

CCCCCCCCn1cc[n+](C)c1.F[B-](F)(F)F + CCCOC(C)=O
298.15 K, 101 kPa
Conditions	viscosity [mPa·s]
x2 = 0.3984	44.84
x2 = 0.4496	33.85
x2 = 0.5551	18.72

CC(C)O + CCCCCC[n+]1ccn(C)c1.O=[N+]([O-])[O-]
100 kPa, x2 = 0
Conditions	viscosity [mPa·s]
293.15 K	2.42
298.15 K	2.08
303.15 K	1.8
308.15 K	1.56
313.15 K	1.36
318.15 K	1.19
323.15 K	1.05

[Cl-].[Cl-].[Co+2] + CCCCCCCC[N+](C)(CCCCCCCC)CCCCCCCC.[Cl-] + CCCCCCCC(=O)O
Conditions	viscosity [mPa·s]
296.1 K, 101.3 kPa, x2 = 0.4, x1 = 0.2	428

ClC(Cl)Cl + CCCC[n+]1ccn(C)c1.F[B-](F)(F)F
298.15 K, 101 kPa
Conditions	electrical conductivity [S/m]	viscosity [mPa·s]
x1 = 0.1079	0.245	92
x1 = 0.2033	0.29	73
x1 = 0.3071	0.347	55.5
x1 = 0.4018	0.411	40.8
x1 = 0.5052	0.498	27.1
x1 = 0.6091	0.586	16.3
x1 = 0.7028	0.676	9.2
x1 = 0.7825	0.668	5.01
x1 = 0.8491	0.54	2.99

CC(C)O + CC[n+]1ccn(CCOC)c1.O=S(=O)([O-])C(F)(F)F
101 kPa, x2 = 0
Conditions	viscosity [mPa·s]
288.15 K	2.806
293.15 K	2.397
298.15 K	2.059
303.15 K	1.777
308.15 K	1.542
313.15 K	1.344
318.15 K	1.176

CCCCCCCC[N+](C)(CCCCCCCC)CCCCCCCC.O=S(=O)([N-]S(=O)(=O)C(F)(F)F)C(F)(F)F + O
100 kPa, x1 = 0.8468
Conditions	viscosity [mPa·s]
313.15 K	239
343.15 K	65

CCCC[n+]1ccn(C)c1.COP(=O)([O-])OC + CCCCC(=O)[O-].CC[NH+](CC)CCO
101 kPa, x2 = 0
Conditions	viscosity [mPa·s]
303.15 K	426
323.15 K	129.4
328.15 K	100.9
348.15 K	43.18
358.15 K	30.38
368.15 K	22.22
373.15 K	19.25

CCCCO + CCCC[n+]1ccn(C)c1.O=S(=O)([O-])C(F)(F)F
100 kPa, x2 = 0
Conditions	viscosity [mPa·s]
298.15 K	2.61
303.15 K	2.31
308.15 K	2.07
313.15 K	1.85
318.15 K	1.66
323.15 K	1.5

CCCC[n+]1ccn(C)c1.[Cl-] + OC[C@H]1O[C@@](CO)(O[C@H]2O[C@H](CO)[C@@H](O)[C@H](O)[C@H]2O)[C@@H](O)[C@@H]1O + O
298.15 K, 101.3 kPa
Conditions	electrical conductivity [S/m]
x2 = 0, x1 = 8.71e-06	0.00583
x2 = 0, x1 = 1.208e-05	0.00794
x2 = 0, x1 = 1.485e-05	0.00965
x2 = 0, x1 = 1.707e-05	0.01101
x2 = 0, x1 = 1.937e-05	0.01241
x2 = 0, x1 = 2.164e-05	0.0138
x2 = 0, x1 = 2.397e-05	0.0152
x2 = 0, x1 = 2.6e-05	0.0164
x2 = 0, x1 = 2.824e-05	0.0177
x2 = 0, x1 = 3.029e-05	0.019
x2 = 0.003591, x1 = 1.096e-05	0.00618
x2 = 0.003591, x1 = 1.434e-05	0.00795
x2 = 0.003591, x1 = 1.771e-05	0.0097
x2 = 0.003591, x1 = 2.081e-05	0.0113
x2 = 0.003591, x1 = 2.41e-05	0.013
x2 = 0.003591, x1 = 2.709e-05	0.0145
x2 = 0.003591, x1 = 3.023e-05	0.01612
x2 = 0.003591, x1 = 3.313e-05	0.0176
x2 = 0.003591, x1 = 3.593e-05	0.019
x2 = 0.007156, x1 = 8.21e-06	0.00407
x2 = 0.007156, x1 = 1.202e-05	0.00576
x2 = 0.007156, x1 = 1.591e-05	0.00748
x2 = 0.007156, x1 = 1.939e-05	0.009
x2 = 0.007156, x1 = 2.274e-05	0.0105
x2 = 0.007156, x1 = 2.585e-05	0.0118
x2 = 0.007156, x1 = 2.894e-05	0.01315
x2 = 0.007156, x1 = 3.183e-05	0.01439
x2 = 0.007156, x1 = 3.476e-05	0.0156
x2 = 0.007156, x1 = 3.761e-05	0.0169
x2 = 0.0107, x1 = 9.71e-06	0.00386
x2 = 0.0107, x1 = 2.409e-05	0.00888
x2 = 0.0107, x1 = 3.038e-05	0.01101
x2 = 0.0107, x1 = 3.477e-05	0.0125
x2 = 0.0107, x1 = 3.967e-05	0.01408
x2 = 0.0107, x1 = 4.399e-05	0.0155
x2 = 0.0107, x1 = 4.83e-05	0.0169
x2 = 0.0107, x1 = 5.264e-05	0.01825
x2 = 0.0107, x1 = 5.673e-05	0.0195
x2 = 0.01421, x1 = 1.037e-05	0.00348
x2 = 0.01421, x1 = 1.591e-05	0.00514
x2 = 0.01421, x1 = 2.109e-05	0.00667
x2 = 0.01421, x1 = 2.647e-05	0.00823
x2 = 0.01421, x1 = 3.163e-05	0.00971
x2 = 0.01421, x1 = 3.643e-05	0.01107
x2 = 0.01421, x1 = 4.107e-05	0.01237
x2 = 0.01421, x1 = 4.582e-05	0.0137
x2 = 0.01421, x1 = 5.048e-05	0.015
x2 = 0.01421, x1 = 5.498e-05	0.01621
x2 = 0.01421, x1 = 5.983e-05	0.0175
x2 = 0.0177, x1 = 1.237e-05	0.00351
x2 = 0.0177, x1 = 1.842e-05	0.00504
x2 = 0.0177, x1 = 2.347e-05	0.00631
x2 = 0.0177, x1 = 2.887e-05	0.00764
x2 = 0.0177, x1 = 3.44e-05	0.00899
x2 = 0.0177, x1 = 4.072e-05	0.0105
x2 = 0.0177, x1 = 4.633e-05	0.0118
x2 = 0.0177, x1 = 5.265e-05	0.01333
x2 = 0.0177, x1 = 5.909e-05	0.0148
x2 = 0.0177, x1 = 6.545e-05	0.0163
x2 = 0.0177, x1 = 7.135e-05	0.0176

— the CheMixHub ionic liquid set
